Measured values as given in ChEMBL document CHEMBL1201862, “PubChem BioAssay data set” (2004).
Calls of active or inactive are those of the source.

Key:
[1] = molecular target: Tyrosine-protein phosphatase non-receptor type 11 (Homo sapiens, UniProt Q06124); experiment: PTPN11 enzyme inhibitors – biochemical, selectivity assay for STEP inhibitor project, dose response (AID 602367); format: functional; details: read-out: IC50_Mean
[2] = molecular target: T1, Tyrosine-protein phosphatase non-receptor type 22 (Homo sapiens, UniProt Q9Y2R2); experiment: lymphoid phosphatase LYP inhibitors – biochemical, selectivity assay for STEP inhibitor project, dose response (AID 624241); format: functional
T1 sequence (Q9Y2R2 whole entry): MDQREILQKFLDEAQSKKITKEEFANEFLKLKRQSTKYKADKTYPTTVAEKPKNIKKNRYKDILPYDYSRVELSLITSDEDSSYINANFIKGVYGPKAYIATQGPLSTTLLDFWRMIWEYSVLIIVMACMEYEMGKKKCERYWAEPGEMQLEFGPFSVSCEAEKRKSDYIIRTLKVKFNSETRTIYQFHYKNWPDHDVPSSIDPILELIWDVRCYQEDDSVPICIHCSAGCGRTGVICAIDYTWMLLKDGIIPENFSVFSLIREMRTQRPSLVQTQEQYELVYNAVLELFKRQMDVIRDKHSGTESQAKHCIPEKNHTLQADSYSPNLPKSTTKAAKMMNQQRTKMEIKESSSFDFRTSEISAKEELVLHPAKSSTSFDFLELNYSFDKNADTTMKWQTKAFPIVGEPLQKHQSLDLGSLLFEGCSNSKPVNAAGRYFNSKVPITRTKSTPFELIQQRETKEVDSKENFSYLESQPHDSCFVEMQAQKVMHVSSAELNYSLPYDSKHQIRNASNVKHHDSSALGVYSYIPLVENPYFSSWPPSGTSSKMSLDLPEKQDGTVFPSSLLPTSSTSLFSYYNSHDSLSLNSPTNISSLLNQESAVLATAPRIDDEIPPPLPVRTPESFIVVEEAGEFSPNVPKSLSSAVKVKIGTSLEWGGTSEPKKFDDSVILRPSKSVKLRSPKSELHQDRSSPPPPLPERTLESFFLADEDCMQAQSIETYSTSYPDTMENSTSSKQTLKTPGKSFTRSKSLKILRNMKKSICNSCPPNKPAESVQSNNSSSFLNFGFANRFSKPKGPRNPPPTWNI

[3] = molecular target: Dual specificity protein phosphatase 3 (Homo sapiens, UniProt P51452); experiment: VHR phosphatase inhibition, dose response, selectivity assay for STEP inhibitor project, biochemical (AID 602374); format: functional; details: read-out: IC50_Mean
Chain of Dual specificity protein phosphatase 3 (P51452 whole entry): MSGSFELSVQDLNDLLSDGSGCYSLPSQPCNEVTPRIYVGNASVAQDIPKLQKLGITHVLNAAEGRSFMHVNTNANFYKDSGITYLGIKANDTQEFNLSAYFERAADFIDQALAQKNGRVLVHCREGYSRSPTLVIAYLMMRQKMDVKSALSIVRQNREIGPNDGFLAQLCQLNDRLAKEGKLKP

[4] = molecular target: Glucose-6-phosphate 1-dehydrogenase (Homo sapiens, UniProt P11413); experiment: inhibition of Homo sapiens G6PD, dose series – biochemical, fluorescence, selectivity assay for P. falciparum G6PD inhibitor project, dose response (AID 504792); format: functional
Chain of Glucose-6-phosphate 1-dehydrogenase (P11413 whole entry): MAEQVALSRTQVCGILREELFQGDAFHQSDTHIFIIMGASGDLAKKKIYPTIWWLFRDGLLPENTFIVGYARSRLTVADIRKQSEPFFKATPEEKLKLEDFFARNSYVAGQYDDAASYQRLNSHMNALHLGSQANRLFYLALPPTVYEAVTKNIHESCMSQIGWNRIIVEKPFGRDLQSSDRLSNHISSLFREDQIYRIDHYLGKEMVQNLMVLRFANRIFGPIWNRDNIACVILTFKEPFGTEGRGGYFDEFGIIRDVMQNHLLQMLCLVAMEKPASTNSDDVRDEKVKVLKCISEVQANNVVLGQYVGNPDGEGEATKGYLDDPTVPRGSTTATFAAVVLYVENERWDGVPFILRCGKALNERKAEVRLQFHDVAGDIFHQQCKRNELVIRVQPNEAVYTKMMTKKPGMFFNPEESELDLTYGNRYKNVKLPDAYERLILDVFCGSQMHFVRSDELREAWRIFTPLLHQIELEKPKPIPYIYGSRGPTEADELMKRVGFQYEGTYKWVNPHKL

[5] = molecular target: Tyrosine-protein phosphatase non-receptor type 5 (Homo sapiens, UniProt P54829); experiment: PTPN5 enzyme inhibition – biochemical, fluorescence intensity, uHTS hits, confirmation (AID 602372); format: functional; details: read-out: IC50_Mean
Chain of Tyrosine-protein phosphatase non-receptor type 5 (P54829 whole entry): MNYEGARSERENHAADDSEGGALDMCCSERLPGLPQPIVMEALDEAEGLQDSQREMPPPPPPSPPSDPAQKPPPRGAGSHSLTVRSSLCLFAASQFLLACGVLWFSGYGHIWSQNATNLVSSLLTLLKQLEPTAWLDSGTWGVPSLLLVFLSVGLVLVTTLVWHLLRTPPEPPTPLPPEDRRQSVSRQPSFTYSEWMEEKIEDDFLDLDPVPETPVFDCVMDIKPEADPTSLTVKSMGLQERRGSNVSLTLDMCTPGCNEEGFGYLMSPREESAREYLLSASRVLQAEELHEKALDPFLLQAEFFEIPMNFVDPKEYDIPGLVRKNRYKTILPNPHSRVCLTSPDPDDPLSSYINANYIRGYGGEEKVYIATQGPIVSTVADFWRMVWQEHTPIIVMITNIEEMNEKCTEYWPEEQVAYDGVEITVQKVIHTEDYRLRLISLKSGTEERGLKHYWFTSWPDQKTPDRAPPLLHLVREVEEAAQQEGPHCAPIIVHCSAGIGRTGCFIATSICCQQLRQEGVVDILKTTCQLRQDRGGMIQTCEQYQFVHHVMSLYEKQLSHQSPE

[6] = molecular target: T2, Sentrin-specific protease 8 (Homo sapiens, UniProt Q96LD8); format: functional
T2 sequence (Q96LD8 whole entry): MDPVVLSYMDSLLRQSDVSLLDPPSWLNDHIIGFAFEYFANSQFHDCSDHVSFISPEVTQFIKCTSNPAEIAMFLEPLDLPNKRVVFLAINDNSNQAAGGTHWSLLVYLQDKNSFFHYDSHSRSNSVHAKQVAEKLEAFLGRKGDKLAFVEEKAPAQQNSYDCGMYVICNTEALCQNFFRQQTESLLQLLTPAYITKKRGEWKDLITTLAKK

[7] = molecular target: T2, Sentrin-specific protease 8; format: functional; remark: listed apart in the source
[8] = molecular target: T3, Replicative DNA helicase DnaB (Mycobacterium tuberculosis, UniProt P9WMR3); experiment: DnaB intein splicing inhibitors, dose response, biochemical, cell-free fluorescence (AID 449749); format: functional
T3 sequence (P9WMR3 whole entry): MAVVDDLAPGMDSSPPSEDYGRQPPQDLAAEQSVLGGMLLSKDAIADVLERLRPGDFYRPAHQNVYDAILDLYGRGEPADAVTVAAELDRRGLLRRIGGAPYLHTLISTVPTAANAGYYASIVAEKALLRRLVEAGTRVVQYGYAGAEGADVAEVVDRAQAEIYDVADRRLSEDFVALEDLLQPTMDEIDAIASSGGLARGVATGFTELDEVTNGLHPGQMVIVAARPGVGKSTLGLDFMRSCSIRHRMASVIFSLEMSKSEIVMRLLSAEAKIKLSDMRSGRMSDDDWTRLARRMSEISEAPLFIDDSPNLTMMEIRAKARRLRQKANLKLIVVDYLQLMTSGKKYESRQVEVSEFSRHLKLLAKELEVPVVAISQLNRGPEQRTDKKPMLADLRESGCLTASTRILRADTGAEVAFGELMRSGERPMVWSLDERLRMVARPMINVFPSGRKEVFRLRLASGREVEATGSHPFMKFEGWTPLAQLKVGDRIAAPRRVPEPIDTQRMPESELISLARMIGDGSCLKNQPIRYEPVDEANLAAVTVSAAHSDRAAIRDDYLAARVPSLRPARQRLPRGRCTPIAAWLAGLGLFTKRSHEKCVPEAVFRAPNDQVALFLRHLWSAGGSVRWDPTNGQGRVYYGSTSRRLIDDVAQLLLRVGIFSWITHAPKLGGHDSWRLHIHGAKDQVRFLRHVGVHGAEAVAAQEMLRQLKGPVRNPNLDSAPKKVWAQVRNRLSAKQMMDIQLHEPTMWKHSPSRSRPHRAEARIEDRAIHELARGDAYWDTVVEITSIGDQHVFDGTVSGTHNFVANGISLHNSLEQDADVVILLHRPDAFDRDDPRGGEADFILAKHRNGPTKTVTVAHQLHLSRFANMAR

Protein RecA = molecular target: T4, Protein RecA (Mycobacterium tuberculosis, UniProt P9WHJ3); experiment: Fluorescence Cell-Free Homogeneous Dose Retest to Identify Inhibitors of RecA-Intein Splicing Activity. [Related pubchem assays (depositor defined):AID2097, AID2223, AID489010, AID492950]; format: functional
T4 sequence (P9WHJ3 whole entry): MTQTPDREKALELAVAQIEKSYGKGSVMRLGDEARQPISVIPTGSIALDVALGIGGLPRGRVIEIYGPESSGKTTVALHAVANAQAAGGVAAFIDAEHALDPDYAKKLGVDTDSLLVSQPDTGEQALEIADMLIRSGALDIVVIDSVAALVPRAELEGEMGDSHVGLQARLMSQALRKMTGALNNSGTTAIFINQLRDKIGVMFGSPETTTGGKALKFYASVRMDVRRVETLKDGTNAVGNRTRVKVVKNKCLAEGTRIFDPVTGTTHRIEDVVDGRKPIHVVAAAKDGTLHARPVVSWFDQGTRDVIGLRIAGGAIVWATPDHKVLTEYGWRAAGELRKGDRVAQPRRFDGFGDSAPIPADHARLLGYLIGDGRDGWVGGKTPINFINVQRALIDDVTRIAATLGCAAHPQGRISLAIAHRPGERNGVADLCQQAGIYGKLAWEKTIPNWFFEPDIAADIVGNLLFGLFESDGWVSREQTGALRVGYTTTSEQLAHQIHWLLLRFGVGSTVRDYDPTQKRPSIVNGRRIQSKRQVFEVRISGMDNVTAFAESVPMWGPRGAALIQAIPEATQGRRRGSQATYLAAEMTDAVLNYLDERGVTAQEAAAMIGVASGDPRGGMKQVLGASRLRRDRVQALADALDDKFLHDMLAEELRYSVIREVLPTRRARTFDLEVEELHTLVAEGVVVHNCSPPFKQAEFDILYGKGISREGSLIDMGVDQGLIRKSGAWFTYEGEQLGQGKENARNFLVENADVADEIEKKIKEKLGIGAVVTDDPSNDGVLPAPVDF

[9] = loss of viability in HepG2 cells – cell-based, CellTiter-Glo, cherry-picked, cytotoxicity control for Shn3 inhibitor project, dose response (AID 624134); format: functional
Streptococcus = experiment: GAS UMAA2166 growth inhibition – luminescence, BacTiterGlo, counter-screen for streptokinase expression inhibitor project, dose response (AID 1915); format: functional, organism-based;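 note: potency for reduction of bacterial viability or growth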
[10] = non-specific 3'UTR reporter inhibition in Clone20-Shn3RL – cell-based, Renilla luciferase, cherry-picked, counter-screen for Shn3 inhibitor project, dose response (AID 624133); format: functional
Streptokinase A = molecular target: T5, Streptokinase A (Streptococcus pyogenes serotype M1, UniProt P10520); experiment: viability-normalized secreted streptokinase activity reduction – plasminogen activation absorbance, OD405, dose response (AID 1914); format: functional, Streptococcus pyogenes M1 GAS;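 note: secreted streptokinase activity via plasminogen activation per viability signal from cell pellet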
T5 sequence (P10520 whole entry): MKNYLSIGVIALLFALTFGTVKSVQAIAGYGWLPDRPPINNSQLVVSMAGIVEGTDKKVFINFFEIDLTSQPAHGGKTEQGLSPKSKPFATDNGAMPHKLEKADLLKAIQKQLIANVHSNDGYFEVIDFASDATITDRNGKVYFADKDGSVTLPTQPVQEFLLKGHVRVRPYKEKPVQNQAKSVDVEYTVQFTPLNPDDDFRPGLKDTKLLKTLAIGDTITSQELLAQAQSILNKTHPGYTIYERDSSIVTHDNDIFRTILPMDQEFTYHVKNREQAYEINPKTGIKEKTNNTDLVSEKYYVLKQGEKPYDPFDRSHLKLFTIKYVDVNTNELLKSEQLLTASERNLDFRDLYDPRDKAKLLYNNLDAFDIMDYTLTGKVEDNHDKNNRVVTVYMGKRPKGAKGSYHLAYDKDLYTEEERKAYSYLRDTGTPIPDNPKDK

[11] = test system: Streptococcus sp. 'group A'; experiment: Streptococcus pyogenes SK(-)GAS viability under kanamycin – luminescence, BacTiterGlo, confirmation, counter-screen for streptokinase expression inhibitor project, dose response (AID 1900); format: functional, organism-based
INS1 = experiment: INS-1E survival protection against cytokine death – cell-based, luminescence, retest, dose response (AID 449756); format: functional; details: Rattus norvegicus;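 note: cell death triggered by IL-1 beta plus TNF-alpha plus IFN-gamma mixture; protective hits raise ATP signal compared with cytokine alone wells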
[12] = reduction of Shn3 3'UTR-driven luciferase in osteoblasts – cell-based, Clone20 osteoblasts, firefly luciferase, cherry-picked, dose response (AID 624132); format: functional;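 note: firefly luciferase luminescence from reporter carrying the Shn3 3'UTR in osteoblasts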
Nonstructural protein 1 = Nonstructural protein 1 (Influenza A virus, UniProt Q194T2); format: functional, Influenza A virus (A/California/07/2009(H1N1))
Chain of Nonstructural protein 1 (Q194T2 whole entry, the tested form may be a part): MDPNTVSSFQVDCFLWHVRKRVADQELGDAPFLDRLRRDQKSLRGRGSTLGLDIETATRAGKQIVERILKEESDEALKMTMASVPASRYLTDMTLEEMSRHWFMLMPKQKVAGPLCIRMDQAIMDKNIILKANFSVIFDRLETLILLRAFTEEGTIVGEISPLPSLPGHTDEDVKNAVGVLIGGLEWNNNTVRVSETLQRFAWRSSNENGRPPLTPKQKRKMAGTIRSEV

[13] = molecular target: Photoreceptor-specific nuclear receptor (Homo sapiens, UniProt Q9Y5X4); format: functional, cell-based;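 note: CHO-S cells with Gal4-NCOR and VP16-NR2E3 two-hybrid luciferase reporter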
Chain of Photoreceptor-specific nuclear receptor (Q9Y5X4 whole entry, the tested form may be a part): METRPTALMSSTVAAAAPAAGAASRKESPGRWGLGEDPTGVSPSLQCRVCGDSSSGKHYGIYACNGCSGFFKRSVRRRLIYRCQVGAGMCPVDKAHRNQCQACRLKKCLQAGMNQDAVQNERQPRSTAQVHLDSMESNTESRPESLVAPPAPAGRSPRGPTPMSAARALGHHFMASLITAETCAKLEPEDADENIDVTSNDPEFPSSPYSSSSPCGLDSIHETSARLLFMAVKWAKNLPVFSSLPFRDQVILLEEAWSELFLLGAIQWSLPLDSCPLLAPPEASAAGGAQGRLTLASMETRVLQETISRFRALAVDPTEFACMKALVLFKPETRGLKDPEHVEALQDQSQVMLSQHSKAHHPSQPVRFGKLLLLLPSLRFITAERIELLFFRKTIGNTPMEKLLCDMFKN

Chain of Tyrosine-protein phosphatase non-receptor type 11 (Q06124 whole entry): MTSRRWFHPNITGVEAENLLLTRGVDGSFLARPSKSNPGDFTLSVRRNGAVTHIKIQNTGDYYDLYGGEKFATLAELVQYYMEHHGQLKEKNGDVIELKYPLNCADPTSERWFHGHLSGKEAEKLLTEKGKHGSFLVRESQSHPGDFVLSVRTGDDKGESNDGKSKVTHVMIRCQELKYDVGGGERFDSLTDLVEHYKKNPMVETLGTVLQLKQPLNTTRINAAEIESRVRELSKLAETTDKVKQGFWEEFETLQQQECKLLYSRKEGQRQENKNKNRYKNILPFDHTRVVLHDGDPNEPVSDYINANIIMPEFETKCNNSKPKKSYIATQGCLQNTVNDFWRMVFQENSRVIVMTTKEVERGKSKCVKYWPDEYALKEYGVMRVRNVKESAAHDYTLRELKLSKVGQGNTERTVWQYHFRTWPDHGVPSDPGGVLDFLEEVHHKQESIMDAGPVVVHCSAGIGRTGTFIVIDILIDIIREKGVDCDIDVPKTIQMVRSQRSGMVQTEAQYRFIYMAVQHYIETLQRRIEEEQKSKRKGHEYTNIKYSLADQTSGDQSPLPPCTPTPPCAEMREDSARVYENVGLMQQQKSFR

Cc1cc(C)c(NC(S)=NCC2CCN(C(C)c3ccccc3)C2)c(C)c1 (stereo not drawn)
IC50 [1]: 0.934 µM (active) | IC50 [2]: 48.4 µM (inactive) | IC50 [3]: 0.343 µM (active) | IC50 [4]: > 80 µM (inactive) | IC50 [5]: 6.09 µM (active)

CC1=NN(c2cccc(Cl)c2)C(=O)C1
IC50 [6]: 13.4 µM (active) | IC50 [7]: 8.2 µM (active) | AC50 [8]: 75.7 µM (active) | EC50 (Protein RecA): 54.5 µM (active)

CC(C)(C)Nc1nc(-c2ccccn2)nc2ccccc12
AC50 [9]: > 70 µM (inactive) | EC50 (Streptococcus): 5.93 µM (active) | AC50 [10]: 1.42 µM (active) | EC50 (Streptokinase A): > 150 µM (not active) | EC50 [11]: 2.48 µM (active) | AC50 (INS1): 2.06 µM (active) | AC50 [12]: 1.86 µM (active) | IC50 (Nonstructural protein 1): 12.2 µM (active) | IC50 [13]: 3.88 µM (active)
